Consider 3 molecules from PMC8041674 (European Journal of Nuclear Medicine and Molecular Imaging, 2020).

As usually defined, the Hill coefficient is the slope factor of the fitted curve.

For one data set, the system named is plasma proteins. Description: [^18F] fluspidine binding to plasma proteins (ultracentrifugation). Type of data set: in vitro ADME. Particulars: human, read-out: fraction of free tracer in plasma, not bound to plasma proteins.
Data set [1] has as its target T1, sigma-1 receptor (S1R) (Homo sapiens, UniProt Q99720). Description: [^18F] fluspidine distribution volume (S1R availability), one-tissue compartment model. The class given is in vivo. Set-up: from tissue; host or cells: living human brain of male healthy volunteers and Huntington disease patients (in vivo PET); VND, non-displaceable distribution volume: unit not given here. From the text:
Application of the linear regression

Data set [2] concerns the target T1, sigma-1 receptor (S1R). Put plainly: Test-retest [^18F] fluspidine PET substudy. Set-up: from tissue; host or cells: living human brain of male healthy volunteers and Huntington disease patients (in vivo PET). To be noted: two HVs, no pridopidine, VT of first and second PET scan. The class given is in vivo. The procedure: The test-retest variability of [18F]Fluspidine binding (VT) was estimated for two HVs (age 27.5±3.5 yrs; body weight 67.0±11.3 kg) from PET data acquired at the same time point of the day within 11 and 14 weeks. No pridopidine was administered before imaging. The test-retest variability was calculated using linear regression of the first and second PET scan. Test-retest analysis was performed to calculate the uncertainty of the RO estimate. As estimated by the slope values of the linear regression, the variability was 0.887 (11.3%; subject #1) and 1.008 (0.8%; subject #2)(Supplementary Fig. S7; Supplementary

Data set [3] addresses T1, sigma-1 receptor (S1R). To be noted: for mean RO (S1R): 90 mg pridopidine; for RO (%), sigma-1 receptor occupancy: PET 2 h post dose. From the text:
This PET study consists of three PET substudies: the [^18F] fluspidine substudy (HVs, n = 11, HD, n = 3), the [^18F] fallypride substudy (HVs, n = 4), and the test-retest [^18F] fluspidine substudy (HVs, n = 2). All subjects were assigned to only one PET substudy. Subjects in the [^18F] fluspidine or [^18F] fallypride substudies were investigated twice within 4 weeks at the same time point of the day.
The doses were not established a priori but were based on the receptor occupancy results from previous cohort subjects. […] Because we observed near to complete S1R occupancy with 90 mg, we reduced the next dose to approximately one fourth. […] The total distribution volume VT of [^18F] fluspidine in the brain was computed from the corresponding TACs and the metabolite-corrected arterial input function using a one-tissue compartment model (1TCM).
The receptor occupancy (RO) is defined as the drug treatment-induced reduction of the receptor density. The values of RO are between 0 (no receptor occupancy) and 1 (100% receptor occupancy). […] Here, it is assumed that the non-displaceable distribution volume VND and the receptor occupancy RO have the same value in all brain regions. Application of the linear regression
1 VTPET1−VTPET2=ROVTPET1−VND yielded VND and RO. From the Lassen plot follows
2 RO=1−VTPET2−VND/VTPET1−VND

The target in data set [4] is T1, sigma-1 receptor (S1R). Description: in vivo. To be noted: for Emax: standard error in brackets. The procedure: Two models with Hill coefficient n fixed to 1 or optimized as a third parameter were investigated and characterized by the Akaike information criterion (AIC). Nonlinear parameter estimation was performed with Mathematica12 (Wolfram Research).
For data set [5], the system named is sigma-1 receptor (S1R) compared with dopamine D3 receptor (D3R). To be noted: in vitro and in vivo animal studies; cited from earlier work.
In data set [6] the test system is sigma-1 receptor (S1R) compared with D2R. To be noted: in vitro and in vivo animal studies; cited from earlier work.
The next data set deals with S1R. To be noted: behaviorally effective doses, [^11C]SA4503 PET; cited from earlier work.
The next data set has as its system D2/D3R. Particulars: behaviorally effective doses, [^11C] Raclopride PET; cited from earlier work.
The test system of data set [7] is Huntington disease patients. Particulars: HD patients, 45 mg bid, week 52, PRIDE-HD; cited from earlier work.
Data set [8] in a line: Pharmacokinetic parameters of pridopidine in plasma. To be noted: at steady state, 0 to 12 h after oral administration of pridopidine.
Setting [9] is: model plasma concentration Cavg2-4h (ng/ml), three-parameter Hill equation.
[10] abbreviates: model plasma concentration Cavg2-4h (ng/ml), two-parameter Hill equation (n = 1).
[11] abbreviates: model weight adjusted dose (mg/kg), three-parameter Hill equation.
Where [12] appears, read: model weight adjusted dose (mg/kg), two-parameter Hill equation (n = 1).

The structures appear in SMILES notation. Where “and” joins values, the source holds several entries; their conditions need not be identical. Equal values may be shown once. Read-outs that look alike come from different tables or passages of the source.

T1 sequence (Q99720 whole entry): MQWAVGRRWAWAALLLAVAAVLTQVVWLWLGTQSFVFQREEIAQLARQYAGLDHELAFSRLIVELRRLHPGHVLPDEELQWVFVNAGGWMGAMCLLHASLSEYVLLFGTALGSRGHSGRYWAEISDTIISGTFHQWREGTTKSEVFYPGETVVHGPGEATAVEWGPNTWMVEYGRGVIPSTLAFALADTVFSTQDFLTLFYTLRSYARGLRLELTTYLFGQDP

As to `FCC[C@@H]1OC2(CCN(Cc3ccccc3)CC2)c2ccccc21` [[^18F] fluspidine, (S)-(-)-[^18F] Fluspidine], in the data set on plasma proteins, the fraction unbound worked out at 0.023 ± 0.007. The “mean VT at baseline PET” value on sigma-1 receptor (S1R) [1] (HD (n = 3), cerebellum) came out at 23.52 ± 12.66; at sigma-1 receptor (S1R) [1] (HD (n = 3), corpus callosum), 8.89 ± 2.75; at sigma-1 receptor (S1R) [1] (HD (n = 3), frontal cortex), 16.32 ± 6.76; on sigma-1 receptor (S1R) [1] (HD (n = 3), medulla), 14.75 ± 7.28; on sigma-1 receptor (S1R) [1] (HD (n = 3), midbrain), 16.46 ± 7.73; at sigma-1 receptor (S1R) [1] (HD (n = 3), pons), 16.10 ± 8.74. In addition, the “mean VT at baseline PET” value was 13.59 ± 5.98 on sigma-1 receptor (S1R) [1] (HD (n = 3), striatum); 26.91 ± 4.49 at sigma-1 receptor (S1R) [1] (HVs (n = 11), cerebellum, mean ± SD); 11.69 ± 2.40 at sigma-1 receptor (S1R) [1] (HVs (n = 11), corpus callosum); 21.38 ± 3.37 at sigma-1 receptor (S1R) [1] (HVs (n = 11), frontal cortex); 16.63 ± 2.72 on sigma-1 receptor (S1R) [1] (HVs (n = 11), medulla); 19.31 ± 2.70 on sigma-1 receptor (S1R) [1] (HVs (n = 11), midbrain). For the same molecule, the “mean VT at baseline PET” value at sigma-1 receptor (S1R) [1] (HVs (n = 11), pons) was determined as 19.13 ± 3.45; at sigma-1 receptor (S1R) [1] (HVs (n = 11), striatum) it was 19.43 ± 2.95. The “VND, non-displaceable distribution volume” value at sigma-1 receptor (S1R) [1] (Lassen plot, baseline vs post-pridopidine PET, patients with Huntington disease, individual subjects) is 4.26 and 3.68 and 4.42. The “test-retest variability, slope of the linear regression” value at sigma-1 receptor (S1R) [2] is 0.887 and 1.008.

For the molecule `CCCN1CCC(c2cccc(S(C)(=O)=O)c2)CC1` [pridopidine], the “mean RO (S1R)” value at sigma-1 receptor (S1R) [3] (HD patients) was found to be 87.4%; at sigma-1 receptor (S1R) [3] (healthy volunteers), 91.2%. The “RO (%), sigma-1 receptor occupancy” value is 17.6% at sigma-1 receptor (S1R) [3] (healthy volunteer (n = 1), single dose 0.5 mg); 41.8% at sigma-1 receptor (S1R) [3] (healthy volunteer (n = 1), single dose 1 mg); 87.2% at sigma-1 receptor (S1R) [3] (healthy volunteer, individual subject, single dose 45 mg); 76.8% and 79.2% at sigma-1 receptor (S1R) [3] (healthy volunteers, individual subjects, single dose 5 mg); 84.1% and 89.2% and 86.7% on sigma-1 receptor (S1R) [3] (healthy volunteers, individual subjects, single dose 22.5 mg); 88.8% and 89.1% and 95.7% on sigma-1 receptor (S1R) [3] (healthy volunteers, individual subjects, single oral dose 90 mg). The “RO (%), sigma-1 receptor occupancy” value at sigma-1 receptor (S1R) [3] (patients with Huntington disease, individual subjects, single dose 90 mg) was 80.4% and 93.2% and 88.5%. On sigma-1 receptor (S1R) [3] (healthy volunteers, 5 mg pridopidine), the “RO (S1R), mean” value amounted to 78.0 ± 1.7%. Further, the Emax on sigma-1 receptor (S1R) [4] (model dose (mg), three-parameter Hill equation, healthy volunteers) is given as 0.90 (0.01); at sigma-1 receptor (S1R) [4] (model dose (mg), two-parameter Hill equation (n = 1), healthy volunteers), 0.93 (0.02); at sigma-1 receptor (S1R) [4] (setting [9]) it was 0.89 (0.02); on sigma-1 receptor (S1R) [4] (setting [10]), 0.91 (0.02); at sigma-1 receptor (S1R) [4] (setting [11]), 0.89 (0.02); at sigma-1 receptor (S1R) [4] (setting [12]) it was 0.93 (0.02). The EC90 at sigma-1 receptor (S1R) [4] (setting [9]) is 0.018 µg/mL and 0.01757 µg/mL; at sigma-1 receptor (S1R) [4] (setting [10]) it was 0.028 µg/mL and 0.02852 µg/mL; on sigma-1 receptor (S1R) [4] (setting [11]), 0.084 mg/kg; at sigma-1 receptor (S1R) [4] (setting [12]), 0.135 mg/kg. The molecule further had a Hill coefficient on sigma-1 receptor (S1R) [4] (three-parameter model, all situations (concentration, dose, adjusted weight dose)) above 1. In addition, the “fold higher affinity towards S1R compared with D3R” value in data set [5] is on record as ~ 30 fold. The “fold higher affinity towards S1R compared with D2R” value in data set [6] is recorded as ~ 100 fold. The “S1R occupancy in rat brains” value in the data set on S1R is given as “high S1R occupancy”. The “D2/D3R occupancy in rat brains” value with D2/D3R is recorded as “low D2/D3R occupancy”. Moreover, in data set [7], the “decline from baseline in total functional capacity (TFC) compared with placebo” value is recorded as “significantly less decline from baseline”.

`CS(=O)(=O)c1cccc(C2CCNCC2)c1` [TV45065]: the “concentration of metabolite in plasma relative to unchanged pridopidine concentration” value in data set [8] is reported as “less than 10%”.
